Measurements as given in patent US20230020663A1, “SULFONAMIDE INHIBITORS AS CTPS1 INHIBITORS” (Step Pharma S.A.S., priority 2019, published 2023).

The compounds below were run on human CTPS1 versus CTPS2 (assay: Human CTPS1 versus CTPS2 selectivity assessment by RapidFire/MS analysis). Details: Table 26; RapidFire/MS IC50 ratio.
Format: biochemical
Procedure: Human CTPS1 versus CTPS2 Selectivity Assessment by RapidFire/MS Analysis.
The enzyme inhibitory activities against each target isoform of interest may be determined for the compounds of the invention using an optimised RapidFire high-throughput mass spectrometry (RF/MS) assay format. RF/MS assays for both human CTPS1 and CTPS2 may be performed in assay buffer consisting of 50 mM HEPES (Merck), 20 mM MgCl2, 5 mM KCl, 1 mM DTT, 0.01% Tween-20, pH to 8.0 accordingly. Human full-length active C-terminal FLAG-His-tag CTPS1 (UniProtKB—P17812, CTPS[1-591]-[…]) may be obtained from Proteros biostructures GmbH. Human full length active C-terminal FLAG-His-Avi tagged CTPS2 (UniProtKB-Q9NRF8, CTPS2 [1-586]-[…]) may be obtained from Harker Bio.
Human CTPS (1 or 2) protein may be prepared in 1× assay buffer to the final working protein concentration required for the reaction. A 2 uL volume per well of 2×CTPS (1 or 2) protein may be mixed with 40 nL of compound using acoustic (ECHO) delivery and incubated for 10 minutes at 25° C. Each isoform enzymatic reaction may be subsequently initiated by addition of 2 uL per well of a 2× substrate mix in assay buffer. For hCTPS1: ATP (0.3 mM), UTP (0.2 mM), GTP (0.07 mM) and L-glutamine (0.1 mM). For hCTPS2: ATP (0.1 mM), UTP (0.04 mM), GTP (0.03 mM) and L-glutamine (0.1 mM). Each mixture may be incubated for an appropriate amount of time per isoform within the determined linear phase of the reaction at 25′C. A 60 uL volume of stop solution (1% formic acid with 0.5 uM ^13C9-^15N3-CTP in H2O) may be added and the plate immediately heat-sealed and centrifuged for 10 minutes at 4,000 rpm. Following centrifugation, plates may be loaded onto the Agilent RapidFire microfluidic solid phase extraction system coupled to an API4000 triple quadrupole mass spectrometer (RF/MS) for analysis.
In all cases, the enzyme converts UTP to CTP. Highly specific and sensitive multiple reaction monitoring (MRM) MS methods may be optimised for the detection of the enzymatic reaction product, CTP, and the stable isotope labelled product standard ^13C9-^15N3-CTP. Readout for data analysis may be calculated as the ratio between the peak area of the product CTP and the internal standard ^13C9-^15N3-CTP. For data reporting, the following equation may be used: […]
For each screening plate, the means of the negative (DMSO) and positive control values were used for the calculation of the respective assay window (S/B) and Z′ values. The median of the respective control values was used for calculation of percent inhibition according to the following equation: […]
Percentage inhibition was then plotted against compound concentration, and the 50% inhibitory concentration (IC50) was determined from the resultant concentration-response curve.
Fold selectivity between CTPS1 and CTPS2 was subsequently calculated according to the following equation: […]
`CCOc1cncc(-c2ccc(NC(=O)C(C)(CCOC)c3cncc(NS(=O)(=O)C4CC4)n3)nc2)n1` (centres unmarked) [Example P198] was tested, and the “Selectivity (fold selectivity between CTPS1 and CTPS2)” value was “+++ (>60 fold (+++))”. In the case of `CC(C)(NC(=O)c1ccc(-c2cncc(C(F)(F)F)n2)cc1)c1cncc(NS(=O)(=O)C2CC2)n1` [Example P222], the “Selectivity (fold selectivity between CTPS1 and CTPS2)” value is reported as “+ (2-30 fold (+))”. With `CCOc1cncc(-c2ccc(NC(=O)C(CC)c3ccnc(NS(=O)(=O)C4CC4)n3)nc2)n1` (centres unmarked) [Example P88] the “Selectivity (fold selectivity between CTPS1 and CTPS2)” value was “+++ (>60 fold (+++))”. `CCC(C(=O)Nc1ccc(-c2cncc(OCC(F)(F)F)n2)cc1)c1ccnc(NS(=O)(=O)C2CC2)n1` (centres unmarked) [Example P108] was tested, and the “Selectivity (fold selectivity between CTPS1 and CTPS2)” value was “+++ (>60 fold (+++))”. For `CCOc1cncc(-c2ccc(NC(=O)C(CC)c3ccnc(NS(=O)(=O)C4CC4)n3)cc2)n1` (centres unmarked) [Example P105, 2-(2-(Cyclopropanesulfonamido)pyrimidin-4-yl)-N-(4-(6-ethoxypyrazin-2-yl)phenyl)butanamide], the “Selectivity (fold selectivity between CTPS1 and CTPS2)” value was “++ (>30-60 fold (++))”. In the case of `CCOc1cncc(-c2ccc(NC(=O)C(OC)c3ccnc(NS(=O)(=O)C4CC4)n3)cc2)n1` (centres unmarked) [Example P164], the “Selectivity (fold selectivity between CTPS1 and CTPS2)” value is reported as “+ (2-30 fold (+))”. With `CCC(C(=O)Nc1ccc(-c2cncc(OC)n2)cc1F)c1ccnc(NS(=O)(=O)C2CC2)n1` (centres unmarked) [Example P95] the “Selectivity (fold selectivity between CTPS1 and CTPS2)” value was “+ (2-30 fold (+))”. With `CC(C)c1cncc(-c2ccc(NC(=O)C(C)(C)c3ccnc(NS(=O)(=O)C4CC4)n3)cc2)n1` [Example P132] the “Selectivity (fold selectivity between CTPS1 and CTPS2)” value was “++ (>30-60 fold (++))”. `CCOc1cncc(-c2ccc(NC(=O)C3(c4ccnc(NS(=O)(=O)C5CC5)n4)CCOCC3)nc2)n1` [Example P115, 4-(2-(Cyclopropanesulfonamido)pyrimidin-4-yl)-N-(5-(6-ethoxypyrazin-2-yl)pyridin-2-yl)tetrahydro-2H-pyran-4-carboxamide] was tested, and the “Selectivity (fold selectivity between CTPS1 and CTPS2)” value was “+++ (>60 fold (+++))”. `CCOc1cncc(-c2ccc(NC(=O)C(CCOC)c3ccnc(NS(=O)(=O)C4CC4)n3)nc2)n1` (centres unmarked) [Example P145] was tested, and the “Selectivity (fold selectivity between CTPS1 and CTPS2)” value was “+++ (>60 fold (+++))”. `CCOc1cncc(-c2ccc(NC(=O)C(C)(C)c3ccnc(NS(=O)(=O)C4CC4)n3)c(C#N)c2)n1` [Example P34] was tested, and the “Selectivity (fold selectivity between CTPS1 and CTPS2)” value was “+ (2-30 fold (+))”. `CCOc1cncc(-c2ccc(NC(=O)Cc3ccnc(NS(=O)(=O)C4CC4)n3)cc2)n1` [Example P18, 2-(2-(Cyclopropanesulfonamido)pyrimidin-4-yl)-N-(4-(6-ethoxypyrazin-2-yl)phenyl)acetamide] was tested, and the “Selectivity (fold selectivity between CTPS1 and CTPS2)” value was “++ (>30-60 fold (++))”. In the case of `CCC(C(=O)Nc1ncc(-c2cncc(OC)n2)cc1F)c1ccnc(NS(=O)(=O)C2CC2)n1` (centres unmarked) [Example P158], the “Selectivity (fold selectivity between CTPS1 and CTPS2)” value is reported as “+ (2-30 fold (+))”. In the case of `CCOc1cncc(-c2ccc(NC(=O)C(C)(C)c3cncc(NS(=O)(=O)C4CC4)n3)nc2)n1` [Example P195], the “Selectivity (fold selectivity between CTPS1 and CTPS2)” value is reported as “+++ (>60 fold (+++))”. `CC(C)Oc1cncc(-c2ccc(NC(=O)C(C)(C)c3ccnc(NS(=O)(=O)C4CC4)n3)c(F)c2)n1` [Example P39] was tested, and the “Selectivity (fold selectivity between CTPS1 and CTPS2)” value was “+ (2-30 fold (+))”. For `CCOc1cncc(-c2ccc(NC(=O)C(CC)c3cncc(NS(=O)(=O)C4CC4)n3)nc2)n1` (centres unmarked) [Example P201], the “Selectivity (fold selectivity between CTPS1 and CTPS2)” value was “+++ (>60 fold (+++))”. `CCOc1cncc(-c2ccc(NC(=O)C(C)(C)c3ccnc(NS(=O)(=O)C4CC4)n3)nc2)n1` [Example P31] was tested, and the “Selectivity (fold selectivity between CTPS1 and CTPS2)” value was “+++ (>60 fold (+++))”. With `CCOc1cncc(-c2ccc(NC(=O)C3(c4ccnc(NS(=O)(=O)C5CC5)n4)CCCC3)nc2)n1` [Example P136] the “Selectivity (fold selectivity between CTPS1 and CTPS2)” value was “+++ (>60 fold (+++))”. For `CCOc1cncc(-c2cnc(NC(=O)C(CC)c3ccnc(NS(=O)(=O)C4CC4)n3)c(F)c2)n1` (centres unmarked) [Example P162], the “Selectivity (fold selectivity between CTPS1 and CTPS2)” value was “++ (>30-60 fold (++))”. For `CCOc1cncc(-c2ccc(NC(=O)C(CCOC)c3ccnc(NS(=O)(=O)C4CC4)n3)c(F)c2)n1` (centres unmarked) [Example P146], the “Selectivity (fold selectivity between CTPS1 and CTPS2)” value was “+++ (>60 fold (+++))”. In the case of `CCOc1cncc(-c2ccc(NC(=O)C(C)(OC)c3cncc(NS(=O)(=O)C4CC4)n3)nc2)n1` (centres unmarked) [Example P205a], the “Selectivity (fold selectivity between CTPS1 and CTPS2)” value is reported as “+++ (>60 fold (+++))”. In the case of `CC(C)Oc1cncc(-c2ccc(NC(=O)Cc3ccnc(NS(=O)(=O)C4CC4)n3)cc2)n1` [Example P21], the “Selectivity (fold selectivity between CTPS1 and CTPS2)” value is reported as “++ (>30-60 fold (++))”. In the case of `CCOc1cncc(-c2ccc(NC(=O)C(CC)c3ccnc(NS(=O)(=O)C4CC4)n3)c(C)c2)n1` (centres unmarked) [Example P161], the “Selectivity (fold selectivity between CTPS1 and CTPS2)” value is reported as “+ (2-30 fold (+))”. In the case of `CC(C)Oc1cncc(-c2ccc(C(=O)NC(C)(C)c3cncc(NS(=O)(=O)C4CC4)n3)c(F)c2)n1` [Example P221], the “Selectivity (fold selectivity between CTPS1 and CTPS2)” value is reported as “+ (2-30 fold (+))”. For `CCOc1cncc(-c2ccc(C(=O)NCc3ccnc(NS(=O)(=O)C4CC4)n3)cc2)n1` [Example P118], the “Selectivity (fold selectivity between CTPS1 and CTPS2)” value was “+++ (>60 fold (+++))”. For `CC(C)(C(=O)Nc1ccc(-c2cncc(C3CC3)n2)cn1)c1ccnc(NS(=O)(=O)C2CC2)n1` [Example P125], the “Selectivity (fold selectivity between CTPS1 and CTPS2)” value was “++ (>30-60 fold (++))”. In the case of `CCC(C(=O)Nc1ccc(-c2cncc(OC)n2)cn1)c1ccnc(NS(=O)(=O)C2CC2)n1` (centres unmarked) [Example P159], the “Selectivity (fold selectivity between CTPS1 and CTPS2)” value is reported as “+++ (>60 fold (+++))”. `CCOc1cncc(-c2ccc(NC(=O)C(F)(CC)c3ccnc(NS(=O)(=O)C4CC4)n3)nc2)n1` (single isomer, unassigned) [Example P114, 2-(2-(cyclopropanesulfonamido)pyrimidin-4-yl)-N-(5-(6-ethoxypyrazin-2-yl)pyridin-2-yl)-2-fluorobutanamide] was tested, and the “Selectivity (fold selectivity between CTPS1 and CTPS2)” value was “+++ (>60 fold (+++))”. For `CCOc1cncc(-c2ccc(NC(=O)C3(c4cncc(NS(=O)(=O)C5CC5)n4)CCOCC3)nc2)n1` [Example P197], the “Selectivity (fold selectivity between CTPS1 and CTPS2)” value was “+++ (>60 fold (+++))”.

Same assay, conditions: Table 27; RapidFire/MS IC50 ratio
For `CCOc1cncc(-c2ccc(NC(=O)C3(c4ccnc(NS(=O)(=O)C5CC5)n4)CCC(N(C)C)CC3)nc2)n1` (single isomer, unassigned) [Example P229, 1-(2-(cyclopropanesulfonamido)pyrimidin-4-yl)-4-(dimethylamino)-N-(5-(6-ethoxypyrazin-2-yl)pyridin-2-yl)cyclohexane-1-carboxamide], the “Selectivity (fold selectivity between CTPS1 and CTPS2)” value was “+++ (>60 fold (+++))”. In the case of `CCOc1cncc(-c2ccc(NC(=O)C3(c4ccnc(NS(=O)(=O)C5CC5)n4)CCC(=O)CC3)nc2)n1` [Example P226, 1-(2-(Cyclopropanesulfonamido)pyrimidin-4-yl)-N-(5-(6-ethoxypyrazin-2-yl)pyridin-2-yl)-4-oxocyclohexanecarboxamide], the “Selectivity (fold selectivity between CTPS1 and CTPS2)” value is reported as “+++ (>60 fold (+++))”. For `CCOc1cncc(-c2ccc(NC(=O)C3(c4ccnc(NS(=O)(=O)C5CC5)n4)CCC(O)CC3)nc2)n1` (single isomer, unassigned) [Example P228, 1-(2-(cyclopropanesulfonamido)pyrimidin-4-yl)-N-(5-(6-ethoxypyrazin-2-yl)pyridin-2-yl)-4-hydroxycyclohexanecarboxamide], the “Selectivity (fold selectivity between CTPS1 and CTPS2)” value was “+ (2-30 fold (+))”. `CCOc1cncc(-c2ccc(NC(=O)C3(c4ccnc(NS(=O)(=O)C5CC5)n4)CCC4(CC3)OCCO4)nc2)n1` [Example P244, 8-(2-(cyclopropanesulfonamido)pyrimidin-4-yl)-N-(5-(6-ethoxypyrazin-2-yl)pyridin-2-yl)-1,4-dioxaspiro[4.5]decane-8-carboxamide] was tested, and the “Selectivity (fold selectivity between CTPS1 and CTPS2)” value was “+++ (>60 fold (+++))”. For `CCOc1cncc(-c2ccc(NC(=O)C3(c4ccnc(NS(=O)(=O)C5CC5)n4)CCC(N(C)C)CC3)nc2)n1` (single isomer, unassigned) [Example P230, 1-(2-(cyclopropanesulfonamido)pyrimidin-4-yl)-4-(dimethylamino)-N-(5-(6-ethoxypyrazin-2-yl)pyridin-2-yl)cyclohexane-1-carboxamide], the “Selectivity (fold selectivity between CTPS1 and CTPS2)” value was “+++ (>60 fold (+++))”. For `CCOc1cncc(-c2ccc(NC(=O)C3(c4ccnc(NS(=O)(=O)C5CC5)n4)CCC(O)CC3)nc2)n1` (single isomer, unassigned) [Example P227, 1-(2-(cyclopropanesulfonamido)pyrimidin-4-yl)-N-(5-(6-ethoxypyrazin-2-yl)pyridin-2-yl)-4-hydroxycyclohexanecarboxamide], the “Selectivity (fold selectivity between CTPS1 and CTPS2)” value was “+++ (>60 fold (+++))”.
